What follows are compounds tested against T1, human GPR119 (Homo sapiens, UniProt Q8TDV5) (assay: Functional cellular assay measuring GPR119-mediated cAMP release (HTRF) in HEK-293 cells stably expressing recombinant human GPR119). Settings: cAMP response, cell line expressing human GPR119, 30 minutes at room temperature.
T1 construct: expressed in transfected cells
T1 sequence (Q8TDV5 1-335): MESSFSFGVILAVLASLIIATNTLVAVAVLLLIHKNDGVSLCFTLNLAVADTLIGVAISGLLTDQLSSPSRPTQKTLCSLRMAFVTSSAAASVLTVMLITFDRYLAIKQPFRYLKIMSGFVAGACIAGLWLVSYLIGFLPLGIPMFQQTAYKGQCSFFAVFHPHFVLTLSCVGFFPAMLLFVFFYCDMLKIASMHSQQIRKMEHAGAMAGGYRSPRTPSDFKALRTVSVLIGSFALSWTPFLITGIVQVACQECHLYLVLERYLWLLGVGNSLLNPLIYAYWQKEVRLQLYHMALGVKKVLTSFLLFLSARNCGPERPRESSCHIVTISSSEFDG
Assay type: cell-based
How it was run: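 HEK-293 cells stably expressing recombinant human GPR119, suspended at 400000 cells/mL in HBSS/20 mM HEPES/0.1% BSA/2 mM IBMX, exposed to compound for 30 minutes at room temperature. cAMP detected by HTRF (665/620 nm ratio) after 1 h with reagents in lysis buffer. EC50 taken as concentration giving 50% of maximal activation.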
`CN(C)C(=O)CN1Cc2ccc(N3CC[C@@H](Oc4ccc(Cl)nc4)C3=O)cc2C1=O` [Example 2-10, 2-[6-[(3R)-3-[(6-chloro-3-pyridyl)oxy]-2-oxo-pyrrolidin-1-yl]-1-oxo-isoindolin-2-yl]-N,N-dimethyl-acetamide] was tested, and the EC50 was 2070 nM.
Compound `CN(C)C(=O)CN1C(=O)c2cc(N3CC[C@@H](Oc4ccc(OCC5CC5)nc4)C3=O)ccc2C1(C)C` [Example 1-12, 2-[5-[(3R)-3-[[6-(cyclopropylmethoxy)-3-pyridyl]oxy]-2-oxo-pyrrolidin-1-yl]-1,1-dimethyl-3-oxo-isoindolin-2-yl]-N,N-dimethyl-acetamide] has an EC50 of 29400 nM.
For `O=C(CN1Cc2ccc(N3CC[C@@H](Oc4ccc(OCC(F)(F)F)nc4)C3=O)cc2C1=O)N1CCC(O)CC1` [Example 1-46, 2-[2-(4-hydroxy-1-piperidyl)-2-oxo-ethyl]-6-[(3R)-2-oxo-3-[[6-(2,2,2-trifluoroethoxy)-3-pyridyl]oxy]pyrrolidin-1-yl]isoindolin-1-one], the EC50 was 184 nM.
`C[S@+]([O-])CN1Cc2ncc(N3CC[C@@H](Oc4ccc(OCC(F)(F)F)nc4)C3=O)cc2C1=O` [Example 1-68, 6-((S)-methanesulfinylmethyl)-3-{(R)-2-oxo-3-[6-(2,2,2-trifluoro-ethoxy)-pyridin-3-yloxy]-pyrrolidin-1-yl}-6,7-dihydro-pyrrolo[3,4-b]pyridin-5-one] gave an EC50 of 143 nM.
`O=C(CN1Cc2ccc(N3CC[C@@H](Oc4ccc(OCC5CC5)nc4)C3=O)cc2C1=O)NCCO` [Example 4-05, 2-[6-[(3R)-3-[[6-(cyclopropylmethoxy)-3-pyridyl]oxy]-2-oxo-pyrrolidin-1-yl]-1-oxo-isoindolin-2-yl]-N-(2-hydroxyethyl)acetamide] was tested, and the EC50 was 249 nM.
With `CN(C)C(=O)CN1Cc2ccc(N3CC[C@@H](Oc4ccc(OCC(F)(F)F)nc4)C3=O)cc2C1=O` [Example 2-05, N,N-dimethyl-2-[1-oxo-6-[(3R)-2-oxo-3-[[6-(2,2,2-trifluoroethoxy)-3-pyridyl]oxy]pyrrolidin-1-yl]isoindolin-2-yl]acetamide] the EC50 was 62 nM.
For `CCOC(=O)CCc1cc(O[C@@H]2CCN(c3ccc4c(c3)C(=O)N(CC(=O)N(C)C)C4)C2=O)ccc1Cl` [Example 2-45, ethyl 3-[2-chloro-5-[(3R)-1-[2-[2-(dimethylamino)-2-oxo-ethyl]-3-oxo-isoindolin-5-yl]-2-oxo-pyrrolidin-3-yl]oxy-phenyl]propanoate], the EC50 was 1510 nM.
For `NC(=O)CN1Cc2ccc(N3CC[C@@H](Oc4ccc(OCC(F)(F)F)nc4)C3=O)cc2C1=O` [Example 1-56, 2-[1-oxo-6-[(3R)-2-oxo-3-[[6-(2,2,2-trifluoroethoxy)-3-pyridyl]oxy]pyrrolidin-1-yl]isoindolin-2-yl]acetamide], the EC50 was 51 nM.
`CN(C)C(=O)CN1Cc2ccc(N3CC[C@@H](Oc4ccc(C(=O)CC5CC5)cc4)C3=O)cc2C1=O` [Example 2-21, 2-[6-[(3R)-3-[4-(2-cyclopropylacetyl)phenoxy]-2-oxo-pyrrolidin-1-yl]-1-oxo-isoindolin-2-yl]-N,N-dimethyl-acetamide] showed an EC50 of 72 nM.
For `CN(C)C(=O)CN1Cc2ccc(N3CC[C@@H](Oc4ccc(OCC(F)(F)F)cc4)C3=O)cc2C1=O` [Example 2-30, N,N-dimethyl-2-[1-oxo-6-[(3R)-2-oxo-3-[4-(2,2,2-trifluoroethoxy)phenoxy]pyrrolidin-1-yl]isoindolin-2-yl]acetamide], the EC50 was 82 nM.
`O=C(CN1Cc2ccc(N3CC[C@@H](Oc4ccc(OCC5CC5)nc4)C3=O)cc2C1=O)N(CCO)CCO` [Example 4-33, 2-[6-[(3R)-3-[[6-(cyclopropylmethoxy)-3-pyridyl]oxy]-2-oxo-pyrrolidin-1-yl]-1-oxo-isoindolin-2-yl]-N,N-bis(2-hydroxyethyl)acetamide] was tested, and the EC50 was 598 nM.
`C[S+]([O-])CN1Cc2c(F)cc(N3CC[C@@H](Oc4ccc(OCC5CC5)nc4)C3=O)cc2C1=O` (stereo partly drawn) [Example 1-19, 6-[(3R)-3-[[6-(cyclopropylmethoxy)-3-pyridyl]oxy]-2-oxo-pyrrolidin-1-yl]-4-fluoro-2-(methylsulfinylmethyl)isoindolin-1-one] was tested, and the EC50 was 71 nM.

From patent publication US9908868B2, “Isoindolinone compounds as GPR119 modulators for the treatment of diabetes, obesity, dyslipidemia and related disorders” (SANOFI, priority 2014, dated 2018)
